# Measurements published in US8569298B2, “Pyridine compounds” (Astrazeneca AB, priority 2008, dated 2013).
# Target: T1, FAK enzyme (6 His tagged kinase domain, GenBank NP—722560) (Homo sapiens, UniProt Q05397)
# T1 construct: 6 His; made in house; host or cells: insect cell culture infected with baculovirus
# Experiment: In vitro enzyme assay (a): sandwich ELISA of FAK tyrosine kinase activity on polyGAT peptide, TMB colorimetric endpoint
# Assay type: biochemical
# Details: in vitro Enzyme Assay test (a); ATP at Km; geometric mean of n > 1 measurements, values marked * tested once
# Description: (a) In Vitro Enzyme Assay
# A sandwich ELISA assay with a 3,3′,5,5′-tetramethyl benzidine (TMB) colorimetric endpoint was used in order to determine the level of effect of selected compounds on inhibition of FAK protein tyrosine kinase enzyme activity. A synthetic tyrosine containing peptide is coated onto a plastic surface, the level of phosphorylation of these tyrosine residues by the kinase enzyme in the presence of inhibitors is measured using an antibody that binds specifically to phosphorylated tyrosine residues. The amount of antibody bound to substrate is proportional to the level of enzyme catalysis.
# Assay Protocol to Identify Inhibitors of Focal Adhesion Kinase (FAK).
# A PlateMate Plus™ 384 automated liquid handling unit with a 100 μl disposable tip head was used to make all the non compound reagent additions and a Tecan 384PW plate washer with 384 head was used for all wash steps. Initially Matrix 384 well polystyrene plates (Cat #:4311) were coated with 40 μl/well of a 0.0375 mg/ml solution of synthetic poly peptide (polyGAT, Sigma Cat #:P3899) dissolved in phosphate buffered saline (PBS). Plates were stored overnight at 4° C. Immediately before use the coating solution was aspirated out and each well washed with 2×100 μl of PBS+0.05% Tween 20. To remove surplus phosphate, the wells were then washed with 2×100 μl 50 mM HEPES buffer pH 7.4. Plates were blotted dry before the addition of compounds. Compounds were tested over a 12 point dose range, a Labcyte Echo 550 was used to dispense compounds in nl volumes and back fill with DMSO. The final concentration of compound in the assay was dependent on the starting concentration of compound. For a 10 mM stock compound the final assay dose ranged from 100 μM down to […]. Control wells containing 120 nl DMSO (Max) or 120 nl of 10 mM staurosporine (LC Laboratories, Boston, USA Cat #: S-9300) (Min) were included in each plate. 10 ul of 5% dimethyl sulfoxide v/v (DMSO, Fisher Scientific) was added to each well immediately prior to addition of 10 μl of a co-factor solution containing 80 mM MgCl2 (Sigma Cat #: M1028); 80 mM MnCl2 (Sigma Cat #: M1787); ATP at a concentration calculated to enable the initial reaction velocity to progress at half the maximum velocity (Km for ATP) (Sigma Cat #:A7699). A final addition of 20 μl of enzyme solution containing 100 mM HEPES pH7.4; 0.2 mM sodium vanadate (Sigma Cat #:S6508); 0.2 g/l bovine serum albumin (BSA, Sigma Cat #: A7888); 0.2 mM dithioreitol (Sigma Cat #: 5545); 0.1% Triton X100 (Sigma Cat #:X100); FAK enzyme (20 μl/ml) was made to each well to start the assay running FAK enzyme was generated from an insect culture infected with baculo virus containing the DNA sequence encoding the 6 His tagged kinase domain (GenBank NP_722560).
# Plates were left at room temperature for 25 minutes before 10 μl of 500 mM ethylenediaminetetraacetic acid (EDTA) was added to stop the assay and the wells were immediately washed 3×100 μl with PBS+0.05% Tween 20. A 4G10 antibody (Millipore Cat #: 16-105; 16-184) with a directly conjugated horse radish peroxidase (HRP) was used to detect the phosphorylation of the substrate by the FAK. 40 μl of PBS+0.05% Tween 20 containing 0.5% BSA and 0.1 μl/ml antibody was added to each well and left for 1 hour at room temperature to allow the antibody to bind. After this period the wells were again washed with 3×100 μl of PBS+0.05% Tween 20. TMB (Sigma Cat #: T2885) was used as a substrate for the HRP. Phosphate-citrate buffer was made up using capsules provided by Sigma (Cat #: P4922) following the manufacturers guidelines. TMB was dissolved at a concentration of 1 mg/ml in DMSO and let down to a final concentration of 0.05 mg/ml with the phosphor-citrate buffer. 40 μl of the TMB solution was added to each assay well and left for 30 minutes for the blue colour to develop. […]
# T1 sequence (Q05397 422-680 limits assumed): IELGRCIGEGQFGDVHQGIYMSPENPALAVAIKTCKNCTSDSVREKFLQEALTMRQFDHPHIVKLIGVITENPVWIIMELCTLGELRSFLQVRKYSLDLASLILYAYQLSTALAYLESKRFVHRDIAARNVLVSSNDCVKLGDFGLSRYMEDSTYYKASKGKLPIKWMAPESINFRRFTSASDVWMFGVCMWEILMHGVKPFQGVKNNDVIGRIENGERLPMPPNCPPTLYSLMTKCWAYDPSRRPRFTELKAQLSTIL
row,Structure (SMILES),IC50
1,"Cc1cc(Nc2cc(Nc3cccc4c3C(=O)N(C)CC4)c(Cl)cn2)nn1C [Example 3.30, 8-[[5-chloro-2-[(1,5-dimethylpyrazol-3-yl)amino]-4-pyridyl]amino]-2-methyl-3,4-dihydroisoquinolin-1-one]",59 nM
2,"CC(=O)N1CCC(n2cc(Nc3cc(Nc4cccc5c4C(=O)N(C)CC5)c(Cl)cn3)cn2)CC1 [Example 3.31, 8-[[2-[[1-(1-acetyl-4-piperidyl)pyrazol-4-yl]amino]-5-chloro-4-pyridyl]amino]-2-methyl-3,4-dihydroisoquinolin-1-one]",171 nM
3,"Cc1nn(C)cc1Nc1cc(Nc2cccc3c2C(=O)N(C)CC3)c(Cl)cn1 [Example 3.32, 8-[[5-chloro-2-[(1,3-dimethylpyrazol-4-yl)amino]-4-pyridyl]amino]-2-methyl-3,4-dihydroisoquinolin-1-one]",9 nM
4,"CN1CCc2cccc(Nc3cc(Nc4cnn(C5CCNCC5)c4)ncc3Cl)c2C1=O [Example 3.33, 8-[[5-Chloro-2-[[1-(4-piperidyl)pyrazol-4-yl]amino]-4-pyridyl]amino]-2-methyl-3,4-dihydroisoquinolin-1-one]",191 nM
5,"CN1CCc2cccc(Nc3cc(Nc4cnn(C5CCCNC5)c4)ncc3Cl)c2C1=O (centres unmarked) [Example 3.34, 8-[[5-chloro-2-[[1-(3-piperidyl)pyrazol-4-yl]amino]-4-pyridyl]amino]-2-methyl-3,4-dihydroisoquinolin-1-one]",160 nM
6,"Cc1nn(C)cc1Nc1cc(Nc2cccc3c2C(=O)N(C)C3)c(Cl)cn1 [Example 3.35, 7-[[5-Chloro-2-[(1,3-dimethylpyrazol-4-yl)amino]-4-pyridyl]amino]-2-methyl-isoindolin-1-one]",36 nM
7,"CNC(=O)c1cc(N2CCN(C)CC2)ccc1Nc1cc(Nc2cc(C)n(C)n2)ncc1Cl [Example 3.36, 2-[[5-Chloro-2-[(1,5-dimethylpyrazol-3-yl)amino]-4-pyridyl]amino]-N-methyl-5-(4-methylpiperazin-1-yl)benzamide]",249 nM
8,"CNC(=O)c1cc(N2CCN(C)CC2)ccc1Nc1cc(Nc2cn(C)nc2C)ncc1Cl [Example 3.37, 2-[[5-chloro-2-[(1,3-dimethylpyrazol-4-yl)amino]-4-pyridyl]amino]-N-methyl-5-(4-methylpiperazin-1-yl)benzamide]",1050 nM
9,"Cc1nn(C)cc1Nc1cc(Nc2ccc(N3CCN(C(C)C)CC3)c3c2C(=O)N(C)C3)c(Cl)cn1 [Example 3.38, 7-[[5-Chloro-2-[(1,3-dimethylpyrazol-4-yl)amino]-4-pyridyl]amino]-4-(4-isopropylpiperazin-1-yl)-2-methyl-isoindolin-1-one]",36 nM
10,"CNC(=O)c1cccc(F)c1Nc1cc(Nc2cn(C)nc2C)ncc1Cl [Example 3.39, 2-[[5-Chloro-2-[(1,3-dimethylpyrazol-4-yl)amino]-4-pyridyl]amino]-3-fluoro-N-methyl-benzamide]",55 nM
11,"CNC(=O)c1c(F)cccc1Nc1cc(Nc2cn(C)nc2C)ncc1Cl [Example 3.40, 2-[[5-Chloro-2-[(1,3-dimethylpyrazol-4-yl)amino]-4-pyridyl]amino]-6-fluoro-N-methyl-benzamide]",122 nM
12,"CNC(=O)c1cc(F)ccc1Nc1cc(Nc2cn(C)nc2C)ncc1Cl [Example 3.41, 2-[[5-chloro-2-[(1,3-dimethylpyrazol-4-yl)amino]-4-pyridyl]amino]-5-fluoro-N-methyl-benzamide]",87 nM
13,"CNC(=O)c1ccc(F)cc1Nc1cc(Nc2cn(C)nc2C)ncc1Cl [Example 3.42, 2-[[5-chloro-2-[(1,3-dimethylpyrazol-4-yl)amino]-4-pyridyl]amino]-4-fluoro-N-methyl-benzamide]",5 nM
14,"CNC(=O)c1ccccc1Nc1cc(Nc2cnn(CC(=O)N3CCCC3)c2)ncc1F [Example 4.01, 2-[[5-Fluoro-2-[[1-(2-oxo-2-pyrrolidin-1-yl-ethyl)pyrazol-4-yl]amino]-4-pyridyl]amino]-N-methyl-benzamide]",1510 nM
15,"CNC(=O)c1ccccc1Nc1cc(Nc2cnn(CC(=O)N(C)C3CCN(C)CC3)c2)ncc1F [Example 4.02, 2-[[5-fluoro-2-[[1-[2-[methyl-(1-methyl-4-piperidyl)amino]-2-oxo-ethyl]pyrazol-4-yl]amino]-4-pyridyl]amino]-N-methyl-benzamide]",1320 nM
16,CNC(=O)c1ccccc1Nc1cc(Nc2cnn(CC(=O)N(C)CCOC)c2)ncc1F [Example 4.03],2120 nM
17,"CNC(=O)c1ccccc1Nc1cc(Nc2cnn(CC(=O)N3CCCN(C)CC3)c2)ncc1F [Example 4.04, 2-[[5-fluoro-2-[[1-[2-(4-methyl-1,4-diazepan-1-yl)-2-oxo-ethyl]pyrazol-4-yl]amino]-4-pyridyl]amino]-N-methyl-benzamide]",967 nM
18,"CNC(=O)c1ccccc1Nc1cc(Nc2cnn(CC(=O)N3CCOCC3)c2)ncc1F [Example 4.05, 2-[[5-fluoro-2-[[1-(2-morpholino-2-oxo-ethyl)pyrazol-4-yl]amino]-4-pyridyl]amino]-N-methyl-benzamide]",1300 nM
19,"CNC(=O)c1ccccc1Nc1cc(Nc2cnn(CC(=O)N3CCC(N(C)C)CC3)c2)ncc1F [Example 4.06, 2-[[2-[[1-[2-(4-dimethylamino-1-piperidyl)-2-oxo-ethyl]pyrazol-4-yl]amino]-5-fluoro-4-pyridyl]amino]-N-methyl-benzamide]",1050 nM
20,"CNC(=O)c1ccccc1Nc1cc(Nc2cnn(CC(=O)N3CCN(C)CC3)c2)ncc1F [Example 4.07, 2-[[5-fluoro-2-[[1-[2-(4-methylpiperazin-1-yl)-2-oxo-ethyl]pyrazol-4-yl]amino]-4-pyridyl]amino]-N-methyl-benzamide]",577 nM
21,"CNC(=O)c1ccccc1Nc1cc(Nc2cnn(C)c2)ncc1F [Example 4.08, 2-[[5-Fluoro-2-[(1-methylpyrazol-4-yl)amino]-4-pyridyl]amino]-N-methyl-benzamide]",2190 nM
22,"CNC(=O)c1ccccc1Nc1cc(Nc2cnn(C3CCOCC3)c2)ncc1F [Example 4.09, 2-[[5-fluoro-2-[(1-tetrahydropyran-4-ylpyrazol-4-yl)amino]-4-pyridyl]amino]-N-methyl-benzamide]",3380 nM
23,"CNC(=O)c1ccccc1Nc1cc(Nc2cn(C)nc2C)ncc1F [Example 4.10, 2-[[2-[(1,3-dimethylpyrazol-4-yl)amino]-5-fluoro-4-pyridyl]amino]-N-methyl-benzamide]",1770 nM
24,"CNC(=O)c1ccccc1Nc1cc(Nc2cnn(C3CCN(C)CC3)c2)ncc1F [Example 4.11, 2-[[5-fluoro-2-[[1-(1-methyl-4-piperidyl)pyrazol-4-yl]amino]-4-pyridyl]amino]-N-methyl-benzamide]",2080 nM
25,"Cc1nn(C)cc1Nc1cc(Nc2cccc3c2C(=O)N(C)CC3)c(F)cn1 [Example 4.12, 8-[[2-[(1,3-Dimethylpyrazol-4-yl)amino]-5-fluoro-4-pyridyl]amino]-2-methyl-3,4-dihydroisoquinolin-1-one]",121 nM
26,"CN1CCc2cccc(Nc3cc(Nc4cnn([C@@H]5CCC(=O)NC5)c4)ncc3F)c2C1=O [Example 4.13, 8-[[5-fluoro-2-[[1-[(3R)-6-oxopiperidin-3-yl]pyrazol-4-yl]amino]pyridin-4-yl]amino]-2-methyl-3,4-dihydroisoquinolin-1-one]",1030 nM
